{"source": "paper PMC10017685", "about": "(Nature Communications, 2023)", "origin": "cited, not measured here"}
{"test_system": "human erythrocytes", "set-up": "method as in DBAASP", "settings": "cited from earlier work"}
{"sequence": "GRKKRRQRRRGALWKSLLKNVGKA [DBAASP_11807]", "Class (dedicated toxicity dataset used for toxicity classifier evaluation)": 0}
{"sequence": "KIAGKIAKIAGKIAKIAGKIA [DBAASP_691]", "Class (dedicated toxicity dataset used for toxicity classifier evaluation)": 0}
{"sequence": "IAKIAGKIAKIAGKIAK [DBAASP_14997]", "Class (dedicated toxicity dataset used for toxicity classifier evaluation)": 0}
{"sequence": "GILSSLLKKLKKWIAK [DBAASP_8917]", "Class (dedicated toxicity dataset used for toxicity classifier evaluation)": 0}
{"test_system": "human erythrocytes", "set-up": "method as in DBAASP", "settings": "toxicity class label 1 or 0, meaning of the labels not given; DBAASP HC50 data, human erythrocytes; ref DBAASP; cited from earlier work"}
{"sequence": "LWKIWKKIWRVWKNWR [DBAASP_17516]", "Class (dedicated toxicity dataset used for toxicity classifier evaluation)": 1}
{"sequence": "ALYKTMLKKLGTMAL [DBAASP_10103]", "Class (dedicated toxicity dataset used for toxicity classifier evaluation)": 0}
{"sequence": "GLKKIFKKGLGSLVKGIAAHVAS [DBAASP_4410]", "Class (dedicated toxicity dataset used for toxicity classifier evaluation)": 0}
{"sequence": "VRRFPWYYPFLRR [DBAASP_14263]", "Class (dedicated toxicity dataset used for toxicity classifier evaluation)": 0}
{"sequence": "LLKKVLKAAA [DBAASP_7358]", "Class (dedicated toxicity dataset used for toxicity classifier evaluation)": 1}
{"sequence": "GLFDIWKKLRWRR [DBAASP_10054]", "Class (dedicated toxicity dataset used for toxicity classifier evaluation)": 0}
{"sequence": "GLNALKKVFQGIHKAIKLINNHVQ [DBAASP_6925]", "Class (dedicated toxicity dataset used for toxicity classifier evaluation)": 0}
{"sequence": "GLLKIIKTLL [DBAASP_3137]", "Class (dedicated toxicity dataset used for toxicity classifier evaluation)": 1}
{"sequence": "LKKVLKAAA [DBAASP_7359]", "Class (dedicated toxicity dataset used for toxicity classifier evaluation)": 0}
{"sequence": "GLLDFFKGAGKELLTHLASQI [DBAASP_16390]", "Class (dedicated toxicity dataset used for toxicity classifier evaluation)": 0}
{"sequence": "GIKDLLKGAAKALVKTVLK [DBAASP_11236]", "Class (dedicated toxicity dataset used for toxicity classifier evaluation)": 0}
{"sequence": "GLLKRIATLL [DBAASP_3123]", "Class (dedicated toxicity dataset used for toxicity classifier evaluation)": 0}
{"sequence": "SKVGRHGRRFGHRAHRKL [DBAASP_7662]", "Class (dedicated toxicity dataset used for toxicity classifier evaluation)": 0}
{"sequence": "RWFKIQMQIRRWKNKK [DBAASP_8804]", "Class (dedicated toxicity dataset used for toxicity classifier evaluation)": 0}
{"sequence": "IKKIVSKIKKLL [DBAASP_7244]", "Class (dedicated toxicity dataset used for toxicity classifier evaluation)": 0}
{"sequence": "VKRFKKFFRKFKKFV [DBAASP_16446]", "Class (dedicated toxicity dataset used for toxicity classifier evaluation)": 0}
{"sequence": "ILGKLLSTAAKLLSNL [DBAASP_4362]", "Class (dedicated toxicity dataset used for toxicity classifier evaluation)": 1}
{"sequence": "FFPLIFGALSSILPKIL [DBAASP_18209]", "Class (dedicated toxicity dataset used for toxicity classifier evaluation)": 1}
{"sequence": "GMLKRIKTLM [DBAASP_8626]", "Class (dedicated toxicity dataset used for toxicity classifier evaluation)": 0}
{"sequence": "GLLKKLLKIAAKVGKKLL [DBAASP_4928]", "Class (dedicated toxicity dataset used for toxicity classifier evaluation)": 1}
{"sequence": "GLWSKIKDAAKTAGKAALGFVNEMV [DBAASP_14233]", "Class (dedicated toxicity dataset used for toxicity classifier evaluation)": 0}
{"sequence": "FPVTWPTKWWKG [DBAASP_7115]", "Class (dedicated toxicity dataset used for toxicity classifier evaluation)": 0}
{"sequence": "GFKDLLKGAAKALVKTVLF [DBAASP_2302]", "Class (dedicated toxicity dataset used for toxicity classifier evaluation)": 0}
{"sequence": "GIKKWVKGVAKGVAKDLAKKIL [DBAASP_11866]", "Class (dedicated toxicity dataset used for toxicity classifier evaluation)": 0}
{"sequence": "FLPLIASVAANLVPKIFCKITKKC [DBAASP_3564]", "Class (dedicated toxicity dataset used for toxicity classifier evaluation)": 0}
{"sequence": "GLLKRIKKLL [DBAASP_3148]", "Class (dedicated toxicity dataset used for toxicity classifier evaluation)": 0}
{"sequence": "HFLGTLVNKAKKIL [DBAASP_5023]", "Class (dedicated toxicity dataset used for toxicity classifier evaluation)": 0}
{"sequence": "RWFKIQLQIRRWKNKK [DBAASP_8805]", "Class (dedicated toxicity dataset used for toxicity classifier evaluation)": 0}
{"sequence": "KLLGPLLKIAAKVGSNLL [DBAASP_4921]", "Class (dedicated toxicity dataset used for toxicity classifier evaluation)": 0}
{"sequence": "GVSKILHSAGKFGKAFLGEIMKS [DBAASP_3776]", "Class (dedicated toxicity dataset used for toxicity classifier evaluation)": 0}
{"sequence": "FLRFAGSVIHGAGHLVHHIGVAL [DBAASP_11350]", "Class (dedicated toxicity dataset used for toxicity classifier evaluation)": 0}
{"sequence": "RQIRIWFQNRRMRWRR [DBAASP_8798]", "Class (dedicated toxicity dataset used for toxicity classifier evaluation)": 0}
{"sequence": "RWRRFWRR [DBAASP_12823]", "Class (dedicated toxicity dataset used for toxicity classifier evaluation)": 0}
{"sequence": "GLFDIWKKWRWRR [DBAASP_10053]", "Class (dedicated toxicity dataset used for toxicity classifier evaluation)": 0}
{"sequence": "KKVLKAAA [DBAASP_7365]", "Class (dedicated toxicity dataset used for toxicity classifier evaluation)": 1}
{"sequence": "IKWKKLLRAAKRIL [DBAASP_2253]", "Class (dedicated toxicity dataset used for toxicity classifier evaluation)": 0}
{"sequence": "GIFDVLKNLAKGVITSLAS [DBAASP_16392]", "Class (dedicated toxicity dataset used for toxicity classifier evaluation)": 0}
{"sequence": "ILGKLLSTAAGLLSKL [DBAASP_4364]", "Class (dedicated toxicity dataset used for toxicity classifier evaluation)": 0}
{"sequence": "GLKEVAHSAKKFAKGFISGLTGS [DBAASP_5713]", "Class (dedicated toxicity dataset used for toxicity classifier evaluation)": 0}
{"sequence": "FLQHIIGALTHIF [DBAASP_10246]", "Class (dedicated toxicity dataset used for toxicity classifier evaluation)": 0}
{"sequence": "GLKALKKVFKGIHKAIKLINNHVQ [DBAASP_6929]", "Class (dedicated toxicity dataset used for toxicity classifier evaluation)": 0}
{"sequence": "KWKVFKKIEKMIRNIRNKIAK [DBAASP_11865]", "Class (dedicated toxicity dataset used for toxicity classifier evaluation)": 0}
{"sequence": "VKRFKKFFRKLKKSV [DBAASP_4328]", "Class (dedicated toxicity dataset used for toxicity classifier evaluation)": 0}
{"sequence": "RQIKIWFQNRRMKWKK [DBAASP_6203]", "Class (dedicated toxicity dataset used for toxicity classifier evaluation)": 0}
{"sequence": "WWWLRRIR [DBAASP_10635]", "Class (dedicated toxicity dataset used for toxicity classifier evaluation)": 0}
{"sequence": "GVGKFLHSAKKFGQALVSEIMKS [DBAASP_3770]", "Class (dedicated toxicity dataset used for toxicity classifier evaluation)": 0}
{"sequence": "WRWLRRIW [DBAASP_10631]", "Class (dedicated toxicity dataset used for toxicity classifier evaluation)": 0}
{"sequence": "YLRLIRYMAKMI [DBAASP_17183]", "Class (dedicated toxicity dataset used for toxicity classifier evaluation)": 0}
{"sequence": "GFWGKLFKLGLHGIGLLHLHL [DBAASP_999]", "Class (dedicated toxicity dataset used for toxicity classifier evaluation)": 0}
{"sequence": "GLLKRIKLLL [DBAASP_3143]", "Class (dedicated toxicity dataset used for toxicity classifier evaluation)": 0}
{"sequence": "FFHHAFRGIVHVGKTIHRLVTG [DBAASP_9003]", "Class (dedicated toxicity dataset used for toxicity classifier evaluation)": 0}
{"sequence": "LLGPVLGLVSNVLGGLL [DBAASP_12136]", "Class (dedicated toxicity dataset used for toxicity classifier evaluation)": 0}
{"sequence": "FFHHIFRGIVHVGKTVHRLVTG [DBAASP_9008]", "Class (dedicated toxicity dataset used for toxicity classifier evaluation)": 0}
{"sequence": "FFPIIAGMAAKVICAITKKC [DBAASP_4211]", "Class (dedicated toxicity dataset used for toxicity classifier evaluation)": 1}
{"sequence": "RWQWRWQWR [DBAASP_10099]", "Class (dedicated toxicity dataset used for toxicity classifier evaluation)": 0}
{"sequence": "FPVTWRWWKWWKG [DBAASP_716]", "Class (dedicated toxicity dataset used for toxicity classifier evaluation)": 0}
{"sequence": "ILPYKYPYYPYRR [DBAASP_4763]", "Class (dedicated toxicity dataset used for toxicity classifier evaluation)": 0}
{"sequence": "FLQGIWDTVGKWL [DBAASP_18166]", "Class (dedicated toxicity dataset used for toxicity classifier evaluation)": 0}
{"sequence": "FIHHAAGGLFSAGKAIHRLIRRRRR [DBAASP_17363]", "Class (dedicated toxicity dataset used for toxicity classifier evaluation)": 0}
{"sequence": "GFKDLLKGAAKALVKTVLK [DBAASP_11235]", "Class (dedicated toxicity dataset used for toxicity classifier evaluation)": 0}
{"sequence": "GVVDILKGAAKDIAGHLASKVMNKL [DBAASP_4358]", "Class (dedicated toxicity dataset used for toxicity classifier evaluation)": 0}
{"sequence": "GFKDLLKGAKKALVKTVLF [DBAASP_4907]", "Class (dedicated toxicity dataset used for toxicity classifier evaluation)": 0}
{"sequence": "KALWKTMLKKLGTMAL [DBAASP_10105]", "Class (dedicated toxicity dataset used for toxicity classifier evaluation)": 0}
{"sequence": "FFHHVFRGIVHVGKTIHRLVTG [DBAASP_9006]", "Class (dedicated toxicity dataset used for toxicity classifier evaluation)": 0}
{"sequence": "GILGKLWEGVKSIF [DBAASP_8864]", "Class (dedicated toxicity dataset used for toxicity classifier evaluation)": 0}
{"sequence": "GLLKKIKKLL [DBAASP_7429]", "Class (dedicated toxicity dataset used for toxicity classifier evaluation)": 0}
{"sequence": "GLLKRIKVLL [DBAASP_3142]", "Class (dedicated toxicity dataset used for toxicity classifier evaluation)": 0}
{"sequence": "GLNALKKVFQGIHEAFKLINNHVQ [DBAASP_6936]", "Class (dedicated toxicity dataset used for toxicity classifier evaluation)": 0}
{"sequence": "GLKALKKVFKGIHKAIKLINKHVQ [DBAASP_6931]", "Class (dedicated toxicity dataset used for toxicity classifier evaluation)": 0}
{"sequence": "DSHAKRHHGYKRKFHEKHHSHRGY [DBAASP_15]", "Class (dedicated toxicity dataset used for toxicity classifier evaluation)": 0}
{"sequence": "GLLSNVAGLLKQFAKGGVNAVLNPK [DBAASP_5717]", "Class (dedicated toxicity dataset used for toxicity classifier evaluation)": 0}
{"sequence": "CFKFKFKFGSGFKFKFKFC [DBAASP_352]", "Class (dedicated toxicity dataset used for toxicity classifier evaluation)": 0}
{"sequence": "GLLKVIKVLL [DBAASP_3150]", "Class (dedicated toxicity dataset used for toxicity classifier evaluation)": 1}
{"sequence": "KIAKGALKALKIAKVALKAL [DBAASP_11228]", "Class (dedicated toxicity dataset used for toxicity classifier evaluation)": 1}
{"sequence": "KIWFQNRRMKWKK [DBAASP_8800]", "Class (dedicated toxicity dataset used for toxicity classifier evaluation)": 0}
{"sequence": "FFLLSLIPSAISAIKKI [DBAASP_8438]", "Class (dedicated toxicity dataset used for toxicity classifier evaluation)": 0}
{"sequence": "KIAKIAGKIAKIAGKIA [DBAASP_14992]", "Class (dedicated toxicity dataset used for toxicity classifier evaluation)": 0}
{"sequence": "LWKIWKKIWRVGWNWR [DBAASP_17513]", "Class (dedicated toxicity dataset used for toxicity classifier evaluation)": 0}
{"sequence": "GMLKRIKTLL [DBAASP_8628]", "Class (dedicated toxicity dataset used for toxicity classifier evaluation)": 0}
{"sequence": "GLKALKKVFQGIHEAIKLINNHVQ [DBAASP_6923]", "Class (dedicated toxicity dataset used for toxicity classifier evaluation)": 0}
{"sequence": "KKKLAKLKLGAKLKLKGKLGA [DBAASP_13729]", "Class (dedicated toxicity dataset used for toxicity classifier evaluation)": 0}
{"sequence": "IIKKIIKKIIKKI [DBAASP_13881]", "Class (dedicated toxicity dataset used for toxicity classifier evaluation)": 0}
{"sequence": "VQLRIRVAVIRA [DBAASP_7109]", "Class (dedicated toxicity dataset used for toxicity classifier evaluation)": 0}
{"sequence": "ILGKLLSTAAKLLSKL [DBAASP_4366]", "Class (dedicated toxicity dataset used for toxicity classifier evaluation)": 1}
{"sequence": "SYERKINRHFKTLKKNLKKK [DBAASP_13931]", "Class (dedicated toxicity dataset used for toxicity classifier evaluation)": 0}
